PMC11126973, “Targeting the Plasmodium falciparum UCHL3 ubiquitin hydrolase using chemically constrained peptides” (Proceedings of the National Academy of Sciences of the …, 2024)
Values joined by “and” are separate entries in the source; they are usually repeats but may differ in a detail not shown here. Equal entries are not always repeated. Bridge positions count the residues as written; N and C are the ends. Square brackets hold non-standard residues; d marks the D form. Peptide text beside a SMILES is read from it.

Assays:
HsUCHL3 = system: T1, HsUCHL3; assay: Ub-AMC deubiquitination (DUB) assay, HsUCHL3; type: biochemical, human; details: peptide 25 μM, HsUCHL3 31.25 pM
T1 construct: His tag (TEV-cleavable) (cleaved yes); made in house; host or cells: bacterial cells (purified 'as described above')
Description: (§1) DUB assays were performed in triplicate in 384-well plates (Corning) using a CLARIOstar plus plate reader. PfUCHL3, HsUCHL3, or peptide were diluted in reaction buffer (50 mM Tris-HCl buffer, pH 7.5, 150 mM NaCl, 1 mg/mL BSA, 0.1% DMSO, and 1 mM TCEP) to 4× the desired final peptide/protein concentration (to keep DMSO concentration constant in all reactions). Protein and peptide (or 0.1% DMSO (mock)) were mixed 1:1 and incubated for 10 min at room temperature, with each enzyme complex at 2× the desired final concentration. Enzyme:peptide mixture (10 μL) and Ub-AMC (7-amino-4-methylcoumarin, Boston Biochem) (250 nM, 10 μL) were mixed in a 384-well plate. DUB activity was measured by monitoring the increase in AMC fluorescence. The kinetic trace at each concentration of peptide was corrected for background and then the initial rate of reaction was determined. The rate of reaction was plotted against the concentration of peptide to determine the IC50 using the following equation: Y=Vmax^*X/IC50+X,
(§2) where Vmax is the reaction rate in the absence of inhibitor, X is the concentration of the peptide inhibitor, and IC50 is the peptide concentration when the rate was inhibited by the peptide by 50%. The data were fitted using Prism (Graphpad).

PfUCHL3 [1] = biological target: T2, PfUCHL3 (Plasmodium falciparum, UniProt Q8IKM8); assay: Thermal shift assay (TSA) of PfUCHL3 with peptides; type: binding; parameters: His tag (TEV-cleavable) (cleaved yes); made in house; host or cells: bacterial cells (purified 'as described above', C41); details: peptide 48 pM to 25 μM, PfUCHL3 5 μM
T2 sequence (Q8IKM8 1-232): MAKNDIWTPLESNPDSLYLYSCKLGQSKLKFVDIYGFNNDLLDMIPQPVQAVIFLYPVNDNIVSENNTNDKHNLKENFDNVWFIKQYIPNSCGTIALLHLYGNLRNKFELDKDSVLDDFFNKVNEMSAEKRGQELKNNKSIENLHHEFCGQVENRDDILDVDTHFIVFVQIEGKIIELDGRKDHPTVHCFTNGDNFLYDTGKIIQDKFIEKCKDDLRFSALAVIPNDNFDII
Description: Thermal shift assays were performed using a Bio-Rad CFX Connect qPCR instrument, whereby the unfolding is detected by fluorescence of the hydrophobic dye Sypro Orange that binds to the unfolded state of the protein. The experiments were performed in clear-bottom, half-volume, 96-well plates using final well volumes of 25 μL, PfUCHL3 concentration of 5 μM, peptide concentrations ranging from 47 pM to 25 μM, and Sypro Orange:protein concentration ratio of 1:400. PfUCHL3, Sypro orange, and peptide were diluted to 5x concentration in buffer, 1:2,000 concentration in buffer, and 4% DMSO, respectively, before being mixed in the well to a final 1x concentration in buffer. For the PfUCHL3-only control, the peptide was replaced with 4% DMSO and for the buffer control, the PfUCHL3 was replaced with buffer in the sample mix. The samples were incubated at 20 °C for 2 min before increasing by 0.5 °C every 30 s up to 90 °C. At each temperature, the fluorescence intensity was measured using an excitation wavelength of 471 nm and an emission wavelength of 570 nm. Data analysis was performed using the GraphPad Prism software.

PfUCHL3 [2] = biological target: T2, PfUCHL3; assay: biochemical; type: binding; parameters: His tag (TEV-cleavable) (cleaved yes); made in house; details: for Kd: BLI, 25 °C
Description: BLI experiments were performed using a ForteBio Octet Red96 instrument at 25 °C. Measurements were performed in black 96-well plates with a well volume of 200 μL. Biotinylated Avi-tagged PfUCHL3 was prepared in a buffer containing 50 mM Tris-HCl buffer, 200 mM NaCl, 0.5 mM TCEP, pH 7.5, and loaded at 1 μg/mL for 60 s. Peptides were diluted to a 4 μM stock concentration in the same DMSO:water mix in which they were resuspended from their stock powder (approximately 4%). The final dilutions (to 400 nM, 133.3 nM, and 44.4 nM) were performed in the same buffer as for the PfUCHL3. Streptavidin-coated tips were used with a new tip for each measurement, because regeneration with PfUCHL3 attached to the tip was not possible. The association and dissociation times were 300 s. All data analysis was performed with the instrument software.

PfUCHL3 [3] = biological target: T2, PfUCHL3; assay: biochemical; parameters: His tag (TEV-cleavable) (cleaved yes); made in house
Description: as §1, §2

Row | SMILES | inhibitory effect on the human UCHL3 enzyme (HsUCHL3) | dose dependence of PfUCHL3 melting temperature (PfUCHL3 [1]) | koff (PfUCHL3 [2]) | kon (PfUCHL3 [2]) | IC50 (PfUCHL3 [3]) | Kd (PfUCHL3 [2]; complex profile fitted to heterogeneous model, the tighter of the two Kd values) | Kd (PfUCHL3 [2]; 1:1 (1-site) model)
1 | CC[C@H](C)[C@@H]1NC(=O)[C@H](Cc2c[nH]c3ccccc23)NC(=O)[C@H](CC(C)C)NC(=O)[C@H](CCCNC(=N)N)NC(=O)[C@@H](Cc2c[nH]c3ccccc23)NC(=O)CSC[C@@H](C(=O)O)NC(=O)[C@H](CC(=O)O)NC(=O)[C@H](Cc2ccc(O)cc2)NC(=O)[C@H](CCCNC(=N)N)NC(=O)[C@H](CC(N)=O)NC(=O)[C@H](Cc2ccc(O)cc2)NC(=O)[C@H](CCCNC(=N)N)NC(=O)[C@H](CCCNC(=N)N)NC(=O)[C@H](CCC(=O)O)NC(=O)[C@H](CO)NC(=O)[C@H](CC(C)C)NC1=O [Peptide 60296] ({CH2CO}-[dW]RLWILSERRYNRYDC-OH; thioether N-16) | Neither 60296 nor 60297 peptides showed any inhibitory effect | increase in a dose-dependent manner | 0.0053 ± 6e-05 s⁻¹ | 569000 ± 16000 M⁻¹ s⁻¹ | – | – | –
2 | CC(C)[C@@H]1NC(=O)[C@H](Cc2ccc(O)cc2)NC(=O)[C@H](Cc2c[nH]cn2)NC(=O)[C@H](Cc2c[nH]c3ccccc23)NC(=O)[C@@H]2CCCN2C(=O)[C@H](Cc2c[nH]c3ccccc23)NC(=O)[C@H](Cc2ccccc2)NC(=O)[C@H]([C@@H](C)O)NC(=O)[C@H]([C@@H](C)O)NC(=O)[C@@H](Cc2c[nH]c3ccccc23)NC(=O)CSC[C@@H](C(=O)O)NC(=O)[C@H](CCC(N)=O)NC1=O [Peptide 60297] ({CH2CO}-[dW]TTFWPWHYVQC-OH; thioether N-12) | – | – | – | – | 1440 ± 371 nM | 2 nM and ~2 nM | –
3 | CC[C@H](C)[C@@H]1NC(=O)[C@H](Cc2ccc(O)cc2)NC(=O)[C@H](CCCNC(=N)N)NC(=O)[C@H](CCC(N)=O)NC(=O)[C@H](Cc2ccc(O)cc2)NC(=O)[C@H](CC(=O)O)NC(=O)[C@@H](Cc2c[nH]c3ccccc23)NC(=O)CSC[C@@H](C(=O)O)NC(=O)[C@H](Cc2c[nH]c3ccccc23)NC(=O)[C@H](CS)NC(=O)[C@H]([C@@H](C)O)NC(=O)[C@H]([C@@H](C)O)NC(=O)[C@H](CC(C)C)NC(=O)[C@H](CCCNC(=N)N)NC(=O)[C@H](Cc2ccccc2)NC(=O)[C@H](CCCCN)NC1=O [Peptide 58474] ({CH2CO}-[dW]DYQRYIKFRLTTCWC-OH; thioether N-16) | – | – | 0.00174 ± 9e-05 s⁻¹ | 17100 ± 900 M⁻¹ s⁻¹ | – | – | 101 ± 7 nM
